Source: PubChem BioAssay (NCI)
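Tested at 5 concentrations; 48 h exposure; 96-well plates; endpoints linearly interpolated, else capped at highest concentration. GI50 marks 50% less growth. TGI: total growth inhibition.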

Tests used:
Assay in all cases: DTP human tumour cell line panel, 48 h
IGROV1 ovarian = test system: IGROV1 ovarian
SK-MEL-2 melanoma = test system: SK-MEL-2 melanoma
HCC-2998 colon = test system: HCC-2998 colon
PC-3 prostate = test system: PC-3 prostate
OVCAR-4 ovarian = test system: OVCAR-4 ovarian
ACHN renal = test system: ACHN renal
UACC-62 melanoma = test system: UACC-62 melanoma
RPMI-8226 leukemia = test system: RPMI-8226 leukemia
NCI-H226 lung = test system: NCI-H226 lung
RXF 393 renal = test system: RXF 393 renal
MALME-3M melanoma = test system: MALME-3M melanoma
NCI-H522 lung = test system: NCI-H522 lung
NCI/ADR-RES ovarian = test system: NCI/ADR-RES ovarian
SF-539 CNS = test system: SF-539 CNS
SNB-19 CNS = test system: SNB-19 CNS
NCI-H23 lung = test system: NCI-H23 lung
OVCAR-8 ovarian = test system: OVCAR-8 ovarian
KM12 colon = test system: KM12 colon
HT29 colon = test system: HT29 colon
K-562 leukemia = test system: K-562 leukemia
CCRF-CEM leukemia = test system: CCRF-CEM leukemia
SNB-75 CNS = test system: SNB-75 CNS
T-47D breast = test system: T-47D breast
MDA-MB-435 = test system: MDA-MB-435
HCT-15 colon = test system: HCT-15 colon
SF-295 CNS = test system: SF-295 CNS
SK-OV-3 ovarian = test system: SK-OV-3 ovarian
TK-10 renal = test system: TK-10 renal
U251 CNS = test system: U251 CNS
M14 melanoma = test system: M14 melanoma
OVCAR-3 ovarian = test system: OVCAR-3 ovarian
UO-31 renal = test system: UO-31 renal
SW-620 colon = test system: SW-620 colon
SK-MEL-5 melanoma = test system: SK-MEL-5 melanoma
DU-145 prostate = test system: DU-145 prostate
UACC-257 melanoma = test system: UACC-257 melanoma
BT-549 breast = test system: BT-549 breast
HS 578T breast = test system: HS 578T breast
SF-268 CNS = test system: SF-268 CNS
MCF7 breast = test system: MCF7 breast
EKVX NSCLC = test system: EKVX NSCLC
786-0 renal = test system: 786-0 renal
HL-60(TB) leukemia = test system: HL-60(TB) leukemia
OVCAR-5 ovarian = test system: OVCAR-5 ovarian
A549 NSCLC = test system: A549 NSCLC
HOP-92 NSCLC = test system: HOP-92 NSCLC
HCT-116 colon = test system: HCT-116 colon
SK-MEL-28 melanoma = test system: SK-MEL-28 melanoma
MDA-MB-231 breast = test system: MDA-MB-231 breast
HOP-62 NSCLC = test system: HOP-62 NSCLC
COLO 205 colon = test system: COLO 205 colon
CAKI-1 renal = test system: CAKI-1 renal
MOLT-4 leukemia = test system: MOLT-4 leukemia

CCc1ccc(C2=C/C(=C/c3ccc(Cl)cc3)C(=O)N2CCc2ccc(S(N)(=O)=O)cc2)cc1
GI50 (IGROV1 ovarian): 3.26 µM
TGI (IGROV1 ovarian): 12.7 µM
GI50 (SK-MEL-2 melanoma): 2.27 µM
TGI (SK-MEL-2 melanoma): 7.76 µM
GI50 (HCC-2998 colon): 2.59 µM
TGI (HCC-2998 colon): 7.2 µM
GI50 (PC-3 prostate): 1.9 µM
TGI (PC-3 prostate): 5.36 µM
GI50 (OVCAR-4 ovarian): 2.56 µM
TGI (OVCAR-4 ovarian): 8.03 µM
GI50 (ACHN renal): 1.94 µM
TGI (ACHN renal): 4.23 µM
GI50 (UACC-62 melanoma): 1.82 µM
TGI (UACC-62 melanoma): 6.22 µM
GI50 (RPMI-8226 leukemia): 2.28 µM
TGI (RPMI-8226 leukemia): 6.14 µM
GI50 (NCI-H226 lung): 2.37 µM
TGI (NCI-H226 lung): 6.34 µM
GI50 (RXF 393 renal): 1.74 µM
TGI (RXF 393 renal): 3.79 µM
GI50 (MALME-3M melanoma): 1.96 µM
TGI (MALME-3M melanoma): 5.19 µM
GI50 (NCI-H522 lung): 2.55 µM
TGI (NCI-H522 lung): 7.39 µM
GI50 (NCI/ADR-RES ovarian): 4.6 µM
TGI (NCI/ADR-RES ovarian): 41.4 µM
GI50 (SF-539 CNS): 2.11 µM
TGI (SF-539 CNS): 4.12 µM
GI50 (SNB-19 CNS): 2.98 µM
TGI (SNB-19 CNS): 13.7 µM
GI50 (NCI-H23 lung): 2.45 µM
TGI (NCI-H23 lung): 7.46 µM
GI50 (OVCAR-8 ovarian): 3.2 µM
TGI (OVCAR-8 ovarian): 13.1 µM
GI50 (KM12 colon): 3.02 µM
TGI (KM12 colon): 10.1 µM
GI50 (HT29 colon): 2.22 µM
TGI (HT29 colon): 4.58 µM
GI50 (K-562 leukemia): 2.81 µM
TGI (K-562 leukemia): > 100 µM
GI50 (CCRF-CEM leukemia): 3.44 µM
TGI (CCRF-CEM leukemia): 32.8 µM
GI50 (SNB-75 CNS): 2.79 µM
TGI (SNB-75 CNS): 12.9 µM
GI50 (T-47D breast): 3.09 µM
TGI (T-47D breast): 11.9 µM
GI50 (MDA-MB-435): 2.15 µM
TGI (MDA-MB-435): 4.81 µM
GI50 (HCT-15 colon): 2.98 µM
TGI (HCT-15 colon): 12.9 µM
GI50 (SF-295 CNS): 1.77 µM
TGI (SF-295 CNS): 3.72 µM
GI50 (SK-OV-3 ovarian): 3.11 µM
TGI (SK-OV-3 ovarian): 9.15 µM
GI50 (TK-10 renal): 2.21 µM
TGI (TK-10 renal): 7.37 µM
GI50 (U251 CNS): 2 µM
TGI (U251 CNS): 4.2 µM
GI50 (M14 melanoma): 2.08 µM
TGI (M14 melanoma): 5.26 µM
GI50 (OVCAR-3 ovarian): 2.12 µM
TGI (OVCAR-3 ovarian): 4.6 µM
GI50 (UO-31 renal): 1.55 µM
TGI (UO-31 renal): 4.53 µM
GI50 (SW-620 colon): 3 µM
TGI (SW-620 colon): 11.8 µM
GI50 (SK-MEL-5 melanoma): 1.63 µM
TGI (SK-MEL-5 melanoma): 3.07 µM
GI50 (DU-145 prostate): 3.77 µM
TGI (DU-145 prostate): 15.4 µM
GI50 (UACC-257 melanoma): 3.79 µM
TGI (UACC-257 melanoma): 15.3 µM
GI50 (BT-549 breast): 1.79 µM
TGI (BT-549 breast): 3.42 µM
GI50 (HS 578T breast): 3.05 µM
TGI (HS 578T breast): 10.9 µM
GI50 (SF-268 CNS): 4.63 µM
TGI (SF-268 CNS): 25.9 µM
GI50 (MCF7 breast): 2.22 µM
TGI (MCF7 breast): 7.99 µM
GI50 (EKVX NSCLC): 2.62 µM
TGI (EKVX NSCLC): 10 µM
GI50 (786-0 renal): 1.86 µM
TGI (786-0 renal): 3.53 µM
GI50 (HL-60(TB) leukemia): 2.12 µM
TGI (HL-60(TB) leukemia): 5.35 µM
GI50 (OVCAR-5 ovarian): 2.18 µM
TGI (OVCAR-5 ovarian): 5.7 µM
GI50 (A549 NSCLC): 2.6 µM
TGI (A549 NSCLC): 7.37 µM
GI50 (HOP-92 NSCLC): 1.67 µM
TGI (HOP-92 NSCLC): 4.8 µM
GI50 (HCT-116 colon): 1.74 µM
TGI (HCT-116 colon): 3.23 µM
GI50 (SK-MEL-28 melanoma): 4.28 µM
TGI (SK-MEL-28 melanoma): 15.8 µM
GI50 (MDA-MB-231 breast): 2.36 µM
TGI (MDA-MB-231 breast): 5.92 µM
GI50 (HOP-62 NSCLC): 2.42 µM
TGI (HOP-62 NSCLC): 5.86 µM
GI50 (COLO 205 colon): 1.78 µM
TGI (COLO 205 colon): 3.54 µM
GI50 (CAKI-1 renal): 2.91 µM
TGI (CAKI-1 renal): 12.4 µM
GI50 (MOLT-4 leukemia): 2.19 µM
TGI (MOLT-4 leukemia): 6.87 µM
